Experimental data: BindingDB's records for doi:10.1016/j.bioorg.2015.10.005 (Hazara University, 2015)

Target: Urease subunit alpha (Sporosarcina pasteurii, UniProt P41020)
Experiment: Urease Inhibition Assay
Conditions: pH 7
Protocol: This assay was modified from Berthelot assay and was employed for the determination of urease activity. The assay is based on the hydrolysis of urea into ammonia which reacts with phenol-hypochlorite to form light blue colored complex measured at 625 nm. A total volume of 85 µl assay mixture contained 10 µl of 50 mM phosphate buffer, pH 7.0, 10 µl of sample solution and 25 µl of Bacillus pasteurii urease (Sigma) solution (0.015 units). The contents were pre-incubated at 37 °C for 10 min. Then, 40 µl of urea stock solution (20 mM) was added to each well and incubation continued at 37 °C for further 10 min and preread at 625 nm using the 96-well plate reader Synergy HT (Biotek Inc.). Phenol hypochlorite (115 µl) reagent was added in each well (freshly prepared by mixing 45 µl phenol reagent with 70 µl of alkali reagent). For color development, incubation was done at 37 °C for another 10 min. Absorbance was again measured at 625 nm.

Urease subunit alpha, sequence (P41020 as listed by the source): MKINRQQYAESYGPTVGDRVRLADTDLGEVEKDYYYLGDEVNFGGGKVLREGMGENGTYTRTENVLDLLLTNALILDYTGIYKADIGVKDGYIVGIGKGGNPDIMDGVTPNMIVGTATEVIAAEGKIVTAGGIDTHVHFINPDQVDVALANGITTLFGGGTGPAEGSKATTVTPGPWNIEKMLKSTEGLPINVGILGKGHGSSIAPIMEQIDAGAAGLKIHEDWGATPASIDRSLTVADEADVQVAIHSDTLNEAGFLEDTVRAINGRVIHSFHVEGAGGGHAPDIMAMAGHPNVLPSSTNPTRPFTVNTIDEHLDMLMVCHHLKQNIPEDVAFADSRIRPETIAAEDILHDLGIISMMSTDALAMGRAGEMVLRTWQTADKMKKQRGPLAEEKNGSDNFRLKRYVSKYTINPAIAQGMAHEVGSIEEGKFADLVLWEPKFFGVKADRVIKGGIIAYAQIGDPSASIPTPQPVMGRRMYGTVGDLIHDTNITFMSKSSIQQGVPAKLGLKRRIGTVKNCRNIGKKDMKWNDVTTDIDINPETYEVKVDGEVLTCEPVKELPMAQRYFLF

| Compound | IC50 [µM] |
| --- | --- |
| COc1cc(/C=N/N=C2\NC(=O)CS2)cc(Br)c1OC [(E)-2((E)-(3-Bromo-4,5-dimethoxybenzylidene)hydrazono) thiazolidine-4-one (7)] | 36.6 |
| O=C1CS/C(=N/N=C/c2cccc([N+](=O)[O-])c2)N1 [(E)-2((E)-(3-nitrobenzylidene)hydrazono)thiazolidin-4-one (8)] | 8.43 |
| O=C1CS/C(=N/N=C\c2ccc(O)cc2)N1 [(E)-2((E)-(4-Hydroxybenzylidin)hydrazono)thiazolidine-4-one (6)] | 14.6 |
| O=C1CSC(N/N=C/c2ccc([N+](=O)[O-])cc2)=N1 [(E)-2((E)-(4-Nitrobenzylidene)hydrazono)thiazolidine-4-one (2)] | 26.9 |
| COc1cccc(/C=N/N=C2\NC(=O)CS2)c1OC [(E)-2-((E)-(2,3-Dimethoxybenzylidene)hydrazono)thiazolidin-4-one (4)] | 52.5 |
| O=C1CS/C(=N/N=C/c2ccccc2[N+](=O)[O-])N1 [(E)-2-((E)-(2-Nitrobenzylidene)hydrazono)thiazolidin-4-one (1)] | 47.5 |
| O=C1CS/C(=N/N=C/c2cc(Cl)cc(Cl)c2O)N1 [(E)-2-((E)-(3,5-Dichloro-2-hydroxybenzylidene)hydrazono)thiazolidin-4-one (5)] | 26.7 |
| O=C1CS/C(=N/N=C\c2ccc(O)c(Cl)c2)N1 [(E)-2-((E)-(3-Chloro-4-hydroxybenzylideno)thiazolidin-4-one (3)] | 9.34 |
| COc1cc(/C=N/N=C2\NC(=O)CS2)cc(OC)c1O [(E)-2-((E)-(4-Hyrazoxy-3,5-dimethoxybenzylidene)hydrazono)thiazolidin-4-one (9)] | 37.9 |
| O=C1CS/C(=N/N=C\C2C=Nc3ccccc32)N1 (centres undefined) [(E)-2-(E)-((1H-Indole-3-yl)methylene)hydrazono)thiazolidine-4-one (16)] | 51.4 |
| C/C(=N/N=C1\NC(=O)CS1)c1ccc([N+](=O)[O-])cc1Br [(Z)-2-((Z)-(1-(2-Bromo-4-nitrophenyl)ethylidene)hydrazono)thiazolidine-4-one (15)] | 2.31 |
| COc1ccc(/C=N\N=C2/NC(=O)CS2)c(OC)c1 [(Z)-2-((Z)-(2,4-Dimethoxybenzoylidine)hydrazono)thiazolidine-4-one (18)] | 69.6 |
| CCOc1ccc(/C=N\N=C2/NC(=O)CS2)cc1OC [(Z)-2-((Z)-(4-Ethoxy-3-methoxybenzoylidine)hydrazono)thiazolidine-4-one (17)] | 5.75 |
| NC(N)=S [thiocarbamide] | 21.2 |
